The assay relates to B6C3F1 mice, ip Sarcoma M5076, median survival T/C. The assay is described as follows: NCI In Vivo Anticancer Drug Screen. Data for tumor model Sarcoma M5076 (intraperitoneal) in B6C3F1 mice. The following applies: endpoint: median survival time, higher = longer survival. A digest of the protocol: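 Survival measured in treated (T) and vehicle control (C) mice with transplantable tumour; result given as T divided by C.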

Where [1] appears, read: dose: 50.0 mg/kg/injection, schedule: Q04DX004 (ip), vehicle: Klucel (hydroxypropylcellulose) (HPC).
Where [2] appears, read: dose: 100.0 mg/kg/injection, schedule: Q04DX004 (ip), vehicle: Klucel (hydroxypropylcellulose) (HPC).
Setting [3] is: dose: 200.0 mg/kg/injection, schedule: Q04DX004 (ip), vehicle: Klucel (hydroxypropylcellulose) (HPC).
Where [4] appears, read: dose: 400.0 mg/kg/injection, schedule: Q04DX004 (ip), vehicle: Klucel (hydroxypropylcellulose) (HPC).
[5] abbreviates: dose: 800.0 mg/kg/injection, schedule: Q04DX004 (ip), vehicle: Klucel (hydroxypropylcellulose) (HPC).
The mark [6] stands for this setting: dose: 30.0 mg/kg/injection, schedule: Q04DX004 (ip), vehicle: Klucel (hydroxypropylcellulose) (HPC).
[7] abbreviates: dose: 60.0 mg/kg/injection, schedule: Q04DX004 (ip), vehicle: Klucel (hydroxypropylcellulose) (HPC).
[8] abbreviates: dose: 150.0 mg/kg/injection, schedule: Q04DX004 (ip), vehicle: saline with Tween-80.
Setting [9] is: dose: 300.0 mg/kg/injection, schedule: Q04DX004 (ip), vehicle: saline with Tween-80.
[10] abbreviates: dose: 600.0 mg/kg/injection, schedule: Q04DX004 (ip), vehicle: saline with Tween-80.
Setting [11] is: dose: 50.0 mg/kg/injection, schedule: Q04DX004 (ip), vehicle: saline with Tween-80.
Setting [12] is: dose: 100.0 mg/kg/injection, schedule: Q04DX004 (ip), vehicle: saline with Tween-80.
Setting [13] is: dose: 200.0 mg/kg/injection, schedule: Q04DX004 (ip), vehicle: saline with Tween-80.
Where [14] appears, read: dose: 12.5 mg/kg/injection, schedule: Q04DX004 (ip), vehicle: saline with Tween-80.

Data on 19 compounds can be found in PubChem BioAssay AID292 (DTP/NCI, 2004).

Several values for one entry are separate records, joined by “and”; a condition that tells them apart may be missing. Equal entries are not always repeated. Toxic doses and inconclusive results are not listed.

In the case of `Cn1c([N+](=O)[O-])cnc1CSc1ccc(C#N)cc1`, the T/C by setting is: under setting [1], 96 % of control; under setting [2], 93 % of control; under setting [3], 102 % of control; under setting [4], 94 % of control; under setting [5], 91 % of control.

With `COc1ccc(CCN2C(=O)C(=O)N(c3ccc(Cl)c(Cl)c3)C2=O)cc1OC`, the T/C runs as follows: under setting [1], 99 % of control; under setting [2], 98 % of control; under setting [3], 94 % of control; under setting [4], 89 % of control; under setting [5], 93 % of control.

As for `Cc1ccc(C2=CSC3=NCCN23)cc1Cl`, the T/C was 103 % of control (dose: 3.0 mg/kg/injection, schedule: Q04DX004 (ip), vehicle: saline); 107 % of control (dose: 6.0 mg/kg/injection, schedule: Q04DX004 (ip), vehicle: saline); 104 % of control (dose: 12.0 mg/kg/injection, schedule: Q04DX004 (ip), vehicle: saline); 100 % of control (dose: 24.0 mg/kg/injection, schedule: Q04DX004 (ip), vehicle: saline); 104 % of control (dose: 25.0 mg/kg/injection, schedule: Q04DX004 (ip), vehicle: saline); 96 % of control (dose: 50.0 mg/kg/injection, schedule: Q04DX004 (ip), vehicle: saline).

For `NC(N)=NS(=O)(=O)c1ccc(NCc2c3ccccc3nc3ccccc23)cc1`, the T/C was 159 % of control under setting [1]; 151 % of control under setting [2]; 178 % of control under setting [3]; 158 % of control and 207 % of control under setting [4]; 167 % of control and 194 % of control under setting [5].

For the compound `NC(=O)C1=CC2C3C=CC2(O)C(=O)OC3O1` (stereo not given), the T/C (dose: 7.5 mg/kg/injection, schedule: Q04DX004 (ip), vehicle: Klucel (hydroxypropylcellulose) (HPC)) is 98 % of control; the T/C (dose: 15.0 mg/kg/injection, schedule: Q04DX004 (ip), vehicle: Klucel (hydroxypropylcellulose) (HPC)) was 95 % of control; the T/C under setting [6] is 101 % of control; the T/C under setting [7] was 106 % of control.

Take `CC1C=NNC1=O` (stereo not given): the T/C under setting [1] is 103 % of control; the T/C under setting [2] was 101 % of control; the T/C under setting [3] is 121 % of control; the T/C under setting [4] is 102 % of control; the T/C under setting [5] is 112 % of control.

Consider `CC1=CC(C)(C)Nc2ccc(OC(=O)/C=C(C)/C=C/C=C(C)/C=C/C3=C(C)CCCC3(C)C)cc21`, for which the T/C runs as follows: (dose: 37.5 mg/kg/injection, schedule: Q04DX004 (ip), vehicle: saline with Tween-80) 96 % of control; (dose: 75.0 mg/kg/injection, schedule: Q04DX004 (ip), vehicle: saline with Tween-80) 98 % of control; under setting [8], 98 % of control; under setting [9], 89 % of control; under setting [10], 89 % of control.

In the case of `Clc1ccc(-c2noc(CN3CCCCC3)n2)cc1`, the T/C is, setting by setting: under setting [11], 92 % of control; under setting [12], 96 % of control; under setting [13], 97 % of control.

With `CO[C@@]12[C@@H]3N[C@@H]3CN1C1=C(C(=O)C(N3CCCC3)=C(C)C1=O)[C@@H]2COC(N)=O`, the T/C runs as follows: (dose: 6.25 mg/kg/injection, schedule: Q04DX004 (ip), vehicle: saline with Tween-80) 269 % of control; under setting [14], 183 % of control.

Take `CCOC(=O)C(N)CSC(=O)NC` (stereo not given): the T/C is, setting by setting: (dose: 130.0 mg/kg/injection, schedule: Q04DX004 (ip), vehicle: saline) 105 % of control; (dose: 216.0 mg/kg/injection, schedule: Q04DX004 (ip), vehicle: saline) 111 % of control and 119 % of control; (dose: 360.0 mg/kg/injection, schedule: Q04DX004 (ip), vehicle: saline) 115 % of control and 122 % of control.

For the compound `NC(C/[N+]([O-])=N/O)C(=O)O` (stereo not given), the T/C (dose: 30.0 mg/kg/injection, schedule: Q04DX005 (ip), vehicle: alkali diluted with saline) was 93 % of control; the T/C (dose: 120.0 mg/kg/injection, schedule: Q04DX005 (ip), vehicle: alkali diluted with saline) was 103 % of control; the T/C (dose: 240.0 mg/kg/injection, schedule: Q04DX005 (ip), vehicle: alkali diluted with saline) is 118 % of control.

Take `COc1cccc(-n2cc[n+](C)c2/C=N/O)c1`: the T/C reads like this: under setting [14], 108 % of control; (dose: 25.0 mg/kg/injection, schedule: Q04DX004 (ip), vehicle: saline with Tween-80) 101 % of control; under setting [11], 108 % of control; under setting [12], 100 % of control.

Take `CC1C(c2ccccc2)OC(N2CCOCC2)C(C)(C)CN1C` (stereo not given): the T/C reads like this: under setting [8], 101 % of control; under setting [9], 104 % of control; under setting [10], 99 % of control.

On to `Nc1ccn(C2CC(N)C(CO)O2)c(=O)n1` (stereo not given), for which the T/C was 109 % of control (dose: 25.0 mg/kg/injection, schedule: Q04DX004 (ip), vehicle: water); 118 % of control and 120 % of control (dose: 50.0 mg/kg/injection, schedule: Q04DX004 (ip), vehicle: water); 121 % of control and 124 % of control (dose: 100.0 mg/kg/injection, schedule: Q04DX004 (ip), vehicle: water); 163 % of control (dose: 800.0 mg/kg/injection, schedule: Q04DX004 (ip), vehicle: water).

In the case of `C/C=C/C(C)C1OC1(C)C(O)C1COC(=O)C(O)C(OC)C(C)C(=O)C(C)C(O)/C(C)=C/C(C)C(=O)CC(O)C(C)C1=O` (stereo not given), the T/C (dose: 2.5 micrograms/kg/injection, schedule: Q04DX004 (ip), vehicle: saline) was 97 % of control; the T/C (dose: 5.0 micrograms/kg/injection, schedule: Q04DX004 (ip), vehicle: saline) is 91 % of control; the T/C (dose: 10.0 micrograms/kg/injection, schedule: Q04DX004 (ip), vehicle: saline) is 102 % of control; the T/C (dose: 20.0 micrograms/kg/injection, schedule: Q04DX004 (ip), vehicle: saline) was 96 % of control.

As for `C=Cc1cc(OC)c2c(c1)c(=O)oc1c2cc(OC)c2c(O)ccc(C3OC(C(C)O)C(O)C3O)c21` (stereo not given), the T/C by setting is: under setting [1], 109 % of control; under setting [2], 115 % of control; under setting [3], 110 % of control.

As for `COC(=O)c1ccc(N=NN(C)COC(C)=O)cc1`, the T/C is 123 % of control under setting [6]; 123 % of control under setting [7]; 175 % of control (dose: 103.7 mg/kg/injection, schedule: Q04DX004 (ip), vehicle: Klucel (hydroxypropylcellulose) (HPC)); 188 % of control (dose: 172.8 mg/kg/injection, schedule: Q04DX004 (ip), vehicle: Klucel (hydroxypropylcellulose) (HPC)); 195 % of control (dose: 288.0 mg/kg/injection, schedule: Q04DX004 (ip), vehicle: Klucel (hydroxypropylcellulose) (HPC)); 167 % of control (dose: 480.0 mg/kg/injection, schedule: Q04DX004 (ip), vehicle: Klucel (hydroxypropylcellulose) (HPC)).

`Oc1ccc(/C=N/Nc2nnc(N/N=C/c3ccc(O)cc3O)c3ccccc23)c(O)c1`: the T/C (dose: 6.25 mg/kg/injection, schedule: Q04DX004 (ip), vehicle: suspension in saline) is 108 % of control; the T/C (dose: 12.5 mg/kg/injection, schedule: Q04DX004 (ip), vehicle: suspension in saline) is 109 % of control; the T/C (dose: 25.0 mg/kg/injection, schedule: Q04DX004 (ip), vehicle: suspension in saline) is 109 % of control; the T/C (dose: 50.0 mg/kg/injection, schedule: Q04DX004 (ip), vehicle: suspension in saline) was 109 % of control; the T/C (dose: 100.0 mg/kg/injection, schedule: Q04DX004 (ip), vehicle: suspension in saline) was 119 % of control.

Take `Nc1cc2c(cc1Br)-c1c(C(=O)O)cccc1C2O` (stereo not given): the T/C under setting [11] is 96 % of control; the T/C (dose: 50.0 mg/kg/injection, schedule: Q04DX004 (ip), vehicle: sodium bicarbonate) was 94 % of control; the T/C under setting [12] is 97 % of control; the T/C (dose: 100.0 mg/kg/injection, schedule: Q04DX004 (ip), vehicle: sodium bicarbonate) is 100 % of control; the T/C under setting [13] was 101 % of control; the T/C (dose: 200.0 mg/kg/injection, schedule: Q04DX004 (ip), vehicle: sodium bicarbonate) is 109 % of control. Also, the T/C by setting is: (dose: 400.0 mg/kg/injection, schedule: Q04DX004 (ip), vehicle: saline with Tween-80) 109 % of control; (dose: 400.0 mg/kg/injection, schedule: Q04DX004 (ip), vehicle: sodium bicarbonate) 107 % of control; (dose: 683.0 mg/kg/injection, schedule: Q04DX004 (ip), vehicle: saline with Tween-80) 103 % of control; (dose: 800.0 mg/kg/injection, schedule: Q04DX004 (ip), vehicle: sodium bicarbonate) 118 % of control.
